From ChEMBL document CHEMBL3507680, “University of Dundee, Gates Library screen for HepG2 cell viability”

Assay: Human HepG2 cell viability assay in 384 well format
Type: toxicity, cell-based
Parameters: dose 125 nL, time 70.5 hour; cytotoxicity at 70.5 h: concentration not given beside the values
Details: HepG2 cells, read-out: Inhibition

SMILES | cytotoxicity at 70.5 h [%]
Cc1c(C(=O)NCCN2C(=O)CCC2=O)sc2ccc(F)cc12 | 2.84
Cc1csc(CCCNC(=O)NC2CC(=O)N(C(C)(C)C)C2)n1 (stereo not drawn) | -2.05
Cc1cc(Cc2ccc(F)cc2)cc(C2CCCNC2)n1 (stereo not drawn) | 16.9
COc1ccc(-c2noc([C@@H](C)NC(=O)CC(C)C)c2C(=O)O)cc1 | -8.52
Cc1cc2cc(Nc3c(C#N)c(=O)n(C)c(=O)n3C)ccc2[nH]1 | -5.45
Cc1cc(C)cc(C(=O)N2CCCC3(CCCC(=O)N3C)C2)c1 (stereo not drawn) | -14.4
Cc1cc(C)c(CNC(=O)NCc2ccncc2)c(=O)[nH]1 | -0.477
O=C(NC1CCN(C2CC2)CC1)NC1CCOc2ccc(Br)cc21 (stereo not drawn) | 5.74
Cc1nc(C)n(CC2CCCN2c2ncnc3sc(C)c(C)c23)n1 (stereo not drawn) | -3.31
O=C(O)C1CCN(C(=O)CCn2ccc3cc(Br)ccc32)CC1 | -15.9
CN(C)C(=O)CN1CCOCC2(CCN(CC3CCOC3)CC2)C1 (stereo not drawn) | 15.1
CCc1ccc(CN2CCCC(c3nn(C)c(=O)n3CC)C2)nc1 (stereo not drawn) | -9.19
O=C(CCn1cccn1)N1CCC(c2nnc(-c3ccsc3)o2)CC1 | -8.63
COCc1cc(NCCc2ccccn2)n2nccc2n1 | 29
CC(C)C(O)CNC(=O)Nc1cnn(Cc2ccccc2)c1 (stereo not drawn) | -1.15
Cc1nc(-c2ccc(Cl)s2)sc1C(=O)NC(C)(C)C(N)=O | -4.82
Cc1cc(NC(=O)CN2CCN(C3CCCC3)C(=O)C2)nn1C | -4.01
Cc1ncsc1CN1CC[C@H]2C(=O)N(c3ccccc3)CCO[C@H]2C1 | -9.01
FC(F)(F)C1CCCn2c(CNCc3cccs3)nnc21 (stereo not drawn) | -7.88
O=C(c1ccc2nncn2c1)N1CCCC1c1noc(C2CC2)n1 (stereo not drawn) | -7.81
Cc1cc(C)n2c(CNCc3ccc(OC(F)F)cc3)cnc2n1 | -9.15
CCOc1ccc(NC(=O)NC2CCc3[nH]ncc3C2)cn1 (stereo not drawn) | -2.96
COCCN1C[C@@H](c2ccccc2)[C@@]2(CCN(CC(=O)N(C)C)C2=O)C1 | -9.6

SMILES | cytotoxicity at 70.5 h [%]
N#Cc1ccc(OCCCN2CCc3cncnc3C2)cc1 | -0.112
O=C1C(Nc2ccc3nccnc3n2)CCN1c1ccccc1 (stereo not drawn) | -6.11
Cc1nnc2n1CCN(C(=O)CN(C)Cc1ccccc1)C2 | 19.2
COc1ccc2c(c1)OCC(CNC1CCc3nc(C)nn3C1)=C2 (stereo not drawn) | -8.64
Cc1occc1C(=O)N1CCC2(CCC2NC(=O)c2ccn(C)c2)CC1 (stereo not drawn) | -2.29
Cc1cccc2c1OCCCC2NCc1nccn1Cc1ccccc1 (stereo not drawn) | -5.77
CC(C)C[C@@H](C(N)=O)n1cc(-c2cncnc2)nn1 | -8.12
CC(C)N1CC2(CCCN(Cc3noc(C4CCCC4)n3)C2)CCC1=O (stereo not drawn) | 3.06
CCc1cc(NC(CCO)c2ccc(OC)cc2)n2nccc2n1 (stereo not drawn) | -0.73
CC(C)(C)OC(=O)N1CCC(C(=O)NCCNc2ncccn2)CC1 | -7.43
CN(CCc1nccs1)C(=O)CC1(O)CCCCC1 | -5.26
Nc1cc(CCC2CN(Cc3ccc4c(c3)OCCO4)CCO2)ccn1 (stereo not drawn) | 0.977
Cn1cc(NC(=O)CCc2ccsc2)ccc1=O | -5.97
Cc1nc(C)n(CC2CN(Cc3cccc(C(N)=O)c3)CCO2)n1 (stereo not drawn) | -4.7
Cc1ccc(N2CCN(C(=O)C(O)c3cccc(Cl)c3)CC2=O)cc1 (stereo not drawn) | -5.15
COc1c(C2CCCN2C(=O)c2sccc2C#N)c(C)nn1C (stereo not drawn) | -5.44
COc1cccc(C(=O)N2CCCCC2c2nccs2)c1OC (stereo not drawn) | 2.23
COCC(=O)N1CCCC1c1ccc(C(=O)NCc2ccccc2Cl)s1 (stereo not drawn) | -11.5
O=C([C@@H]1CSCN1)N1CCC2(CC1)CNCc1ccccc12 | 3.6
CC(C)CNC(=O)c1ccc2nnc(C3CCN(S(C)(=O)=O)C3)n2c1 (stereo not drawn) | -19.7
COCCC(=O)N1CCC2(CCCN(Cc3cc(OC)ccc3F)C2)C1 (stereo not drawn) | -6.14
CCCS(=O)(=O)N1CCC2(CC1)COCCN(C(C)=O)C2 | -4.27
Cc1ccccc1CNC(=O)c1ccccc1-n1cnc(CN)c1 | -0.745

SMILES | cytotoxicity at 70.5 h [%]
CCCC(=O)N(C)c1cccc2ncccc12 | -1.87
O=C(c1ccccn1)N1CC[C@H]2C(=O)N(c3ccsc3)CCO[C@H]2C1 | -15.7
Cc1cnn(CC2CCCCN2C(=O)c2csc(C)n2)c1 (stereo not drawn) | -3.43
O=C(C1CCOCC1)N1C[C@H]2CNC[C@H]2C1 | -1.57
CCOc1cccc(CNC(=O)N2CCC(Cc3cnn(C)c3)C2)c1 (stereo not drawn) | -13.7
CN1[C@@H](C(=O)NCC2CC2)C[C@@H]2CN(Cc3ccsc3)C[C@@H]21 | 11.3
CC1CN(C)CCN1CC(=O)NCCOc1ccc(Cl)cc1 (stereo not drawn) | 11.2
Cc1ccc(CN2CC[C@H]3CO[C@H](CN4CCN(C)CC4)[C@H]3C2)o1 | -7.33
O=S1(=O)NCC2(CCNCC2)COc2ccccc21 | -2.63
CS(=O)(=O)NCCC(=O)N1CCN(S(=O)(=O)c2ccc(Br)cc2)CC1 | 6.55
COc1ccc(NC(=O)c2ccc(-n3ncc(C#N)c3N)cc2)cn1 | 3.5
COc1cccc(-c2n[nH]c3c2CN(C(=O)c2cccc(=O)[nH]2)CC3)c1 | -6.52
COCC(C)N1CCN(CCc2ccc3c(c2)CCO3)CC1 (stereo not drawn) | 21.8
OCCN1CCN(Cc2coc(-c3ccccc3)n2)CC1 | -4.94
COc1ccc(-c2nnc(CN3CCCC3Cn3cncn3)o2)cc1 (stereo not drawn) | 15.3
CN(C)C(=O)Cc1nc(CN2CCn3c(nnc3C3CC3)C2)cs1 | -18.5
CN(Cc1nnn(CC2CCC2)n1)C(=O)c1ccccc1 | -2.78
CCc1nc(CN2CCCN(C(=O)CCCOC)CC2)cs1 | 2.4
CN(C)c1nccc(C2CCN(C3CCCCC3O)CC2)n1 (stereo not drawn) | 21.1
CN(CCC#N)C(=O)CN1CCCC1c1ccsc1 (stereo not drawn) | 22.4
COc1cccc(OC)c1C(=O)N1C[C@@H](CN(C)C)[C@@H](CO)C1 | -2.79
Cc1cccc(N2CCC(NC(=O)CCCc3cccs3)CC2)n1 | -2.62
CCCC(=O)N1CCC(c2cc3cccnc3c(O)n2)CC1 | -5.85

SMILES | cytotoxicity at 70.5 h [%]
CN1CC2(CCN(Cc3ncc[nH]3)CC2)CC1=O | -4.6
O=C(Nc1ccc(CC(=O)N2CCSCC2)cc1)NC1CCCC1 | -4.2
CCOCC(=O)N1C[C@@H](NC(C)=O)[C@H](c2ccc(OC)cc2)C1 | -8.31
CNC(=O)CCc1cc(C2CCCCN2C)nc(C)n1 (stereo not drawn) | -7.9
COCC(=O)NC[C@H]1OC[C@@H](NC2CCC(F)(F)CC2)[C@@H]1O | -8.37
COC1CN(C(=O)OCC(C)C)CCC(=O)N(C)c2ccccc21 (stereo not drawn) | -4.55
O=C(NCc1cccs1)[C@@H]1CC[C@@H]2[C@@H](CCN2c2ncccn2)O1 | -19.1
c1cnc(N2CCO[C@H]3CN(Cc4cc[nH]n4)C[C@H]32)cn1 | -7.22
CCc1nc(C2CCCN2CCCS(N)(=O)=O)no1 (stereo not drawn) | -3.37
Cc1ncsc1C(=O)NC1CCN(CC(N)=O)CC1 | -6.12
O=c1c2cccc(F)c2ncn1CCN1CCNCC1 | -2.04
Cc1nc2c(c(NC3CCN(Cc4cccnc4)CC3)n1)CCNCC2 | -18.8
CN1C(=O)CCCC12CCCN(C(=O)c1cc(F)cc(F)c1)C2 (stereo not drawn) | -9.55
c1cc(CO[C@@H]2CC[C@H]3[C@H]2OCCN3CC2CCOCC2)ccn1 | 21.5
CCC(CC)CN1CCN(CC(=O)Nc2ccc3nsnc3c2)CC1 | 3.54
Cc1nc[nH]c1-c1nccn1CCN1CCCC1=O | 24.3
CS(=O)(=O)c1ccc(C(=O)N2CCCC(n3cccn3)C2)cc1 (stereo not drawn) | 0.802
O=C(O)C1c2nc[nH]c2CCN1Cc1ccc(-c2ccccc2)s1 (stereo not drawn) | -4.04
CC(C)N1CCCC(Cc2cncc(Br)c2)CC1 (stereo not drawn) | -4.98
CCn1nc(C)c(CN2CCC(c3ccn[nH]3)C2)c1C (stereo not drawn) | 4.91
CCN1CCN(c2ccc(F)cc2C(C)NCc2ccncc2)CC1 (stereo not drawn) | -1.51
c1ccc(-c2nc(CN3CCOC(Cn4cccn4)C3)cs2)cc1 (stereo not drawn) | -2.87
Cn1ccc2c(-c3nccc(N)n3)ccnc21 | 5.54

SMILES | cytotoxicity at 70.5 h [%]
N#Cc1cccc(OC2CCN(C(=O)c3cncc(O)c3)CC2)c1 | -2.58
O=C(NCCCOCC1CC1)Nc1cccnc1N1CCOCC1 | -5.01
Cc1csc(C2(NC(=O)NCCN3CCOCC3)CCCC2)n1 | -7.84
CN(Cc1ccno1)C(=O)c1cccc(CC2CCNCC2)c1 | 6.56
Cc1cccc(-c2nc(CN3CCc4cnc(C)nc4C3)no2)c1 | -21.3
COc1ccccc1C(=O)N1C[C@@H]2CCCCN(CC(N)=O)[C@@H]2C1 | -11.4
CCCc1cc(C(=O)N2C[C@H]3CCC[C@@]3(CO)C2)[nH]n1 | -7.84
CN(Cc1ccoc1)C(=O)Cn1ncc(N(C)C)cc1=O | 9.67
CCCN1CCC(CC(=O)N2CCC(C(O)c3nccn3C)CC2)CC1 (stereo not drawn) | -11.6
COc1c(CNCc2nnc3n2CCCCC3)c(C)nn1C | -6.68
O=C(Cc1cccs1)N1CCC2(CCCN(CC3CCOCC3)C2)C1 (stereo not drawn) | -6.08
CCS(=O)(=O)NCC(=O)NC1(C)CCc2ccccc2C1 (stereo not drawn) | -5.54
COc1cccc(-c2cc(C(=O)N3N=C(C)CC3(O)C(F)F)[nH]n2)c1 (stereo not drawn) | -11
Cc1cc(C(=O)Nc2cccn(Cc3ccccc3)c2=O)no1 | 1.5
CCn1c(C)nnc1CN(C)C1CCN(CCOc2ccccc2)C1 (stereo not drawn) | 29.3
CCC1=N[C@@]2(CC[C@@H]3CN(Cc4ccc(F)cc4)C[C@@H]32)C(=O)N1C | 0.293
CN(C)c1ccc(CC2CCCN(c3cnccn3)C2)nn1 (stereo not drawn) | -6.12
CSC(C)(C)CNC(=O)NC1CCN(CC=C(C)C)CC1 | 31.2
O=C(c1ccn(-c2cccc(F)c2)n1)N1CCN(CC2CC2)CC1 | -7.87
CCn1ncnc1C1CC(=O)NCc2nc(N3CCOCC3)sc21 (stereo not drawn) | -20.5
CC(C)C(NC(=O)Cn1nc2c(cc1=O)CCCC2)C(=O)O (stereo not drawn) | -13.5
